Key:
[1] = test system: patients with Dravet syndrome; assay: Study 1: Phase 3 randomized, double-blind, placebo-controlled study of ZX008 as adjunctive therapy (ZX008-1501/1502); type: in vivo, human; details: for mean (SD) number of non-convulsive seizures (all types) per 28 days: Baseline; for reduction from Baseline in non-convulsive seizure frequency: T+M Period; for mean (SD) non-convulsive seizure frequency per 28 days: end of T+M Period
Procedure: The first 119 subjects to be randomized in both identical studies combined were analyzed and reported as Study 1 (FIG. 1), covered by a Statistical Analysis Plan (SAP).
Primary and key secondary endpoints in the Study 1 SAP were pre-determined. All patients were treated twice per day over a period of 14 weeks using an oral syringe to administer the formulation. The treatment period included a two-week titration period and a 12-week maintenance period.
The initial results of Study 1 are outlined below. The randomized, double blind, placebo controlled, Phase 3 study enrolled 119 patients across sites in the United States, Canada, Europe and Australia. The median age of patients was 8 years, the mean age of patients was 9 years (range, 2-18 years) (FIG. 2).
Patients were titrated to their target dose over two weeks, and then remained at that fixed dose for 12 weeks. The mean baseline convulsive seizure frequency across the study groups was approximately 40 seizures per month. 110 (92%) patients completed the study (85% 0.8 mg/kg/day; 100% 0.2 mg/kg/day; 93% placebo).
The proportion of patients who achieved ≥75% seizure reductions, a secondary (non-key) efficacy measure, is also presented.
The mean number of convulsive seizure free days, defined as a day for which diary data are available and no convulsive seizures have been reported, was determined for each treatment group during the Baseline and T+M Periods. Using a parametric analysis, comparisons for the ZX008 groups to placebo were estimated from an ANCOVA model with treatment group (3 levels) and age group (<6 years, ≥6 years) as factors, log baseline number of convulsive seizure free days as a covariate and log convulsive seizure free days (Titration+Maintenance, or Maintenance Period) as response. The mean (SD) number of convulsive seizure free days per 28 days during the Baseline Period was 12.6 (7.68), 15.7 (6.80), and 14.6 (7.59) for the placebo, 0.2 and 0.8 mg/kg/day groups, respectively. […] The mean (SD) number of convulsive seizure free days for the 0.2 mg/kg/day group was 17.9 (8.04) days, which was numerically greater than placebo, but was not statistically significant (p=0.514). Similar results were obtained with a nonparametric analysis where the difference between the 0.8 mg/kg/day and placebo groups was statistically significant (p<0.001) while the difference between the 0.2 mg/kg/day and placebo groups was not (p=0.102).

[2] = test system: patients with Dravet syndrome; details: cited from earlier work
[3] = test system: patients with Dravet syndrome; assay: Open-label extension (OLE) study (Study 1503); type: in vivo, human; details: for median decrease in MCSF over the entire observation period compared to baseline: OLE interim analysis
Procedure: Table 7 presents additional analysis of seizure free intervals in the two placebo-controlled studies prior to the OLE. Inclusion criteria in both studies were for patients aged ≥2 years. Subgroup analysis was performed on patients between ≥2 to <6 years and on patients ≥6 years.
Patients (2-18 years old) entered a long-term, OLE study (Study 1503) after completing either Study 1 or Study 1504: Study 1 (14 wk; FFA: 0, 0.2, or 0.8 mg/kg/d; max, 30 mg/d in stiripentol [STP]-free AED regimens) or Study 1504 (15 wk; FFA: 0.5 mg/kg/d; max, 20 mg/d in AED+STP regimens). In 1503, all patients received 0.2 mg/kg/d FFA for 1 month; dosing was titrated to therapeutic effect thereafter.
A total of 42 of 158 (26.6%) patients who enrolled in the OLE were <6 years old at time of entry into the OLE study. The median baseline monthly convulsive seizure frequency (MCSF) prior to double-blind treatment was 10.7 seizures/month (range, 4.0 to 147.3). At the time of the OLE interim analysis, the median decrease in MCSF over the entire observation period compared to baseline was −76% (P<0.001) compared with −64% in the overall study population during the same time period.

[4] = long-term fenfluramine treatment

## CCNC(C)Cc1cccc(C(F)(F)F)c1 (racemic) [fenfluramine, 3-trifluoromethyl-N-ethylamphetamine]
[1]; 0.2 mg/kg/day group
  mean (SD) number of non-convulsive seizures (all types) per 28 days: 193.6 (478.45) per 28 days
[1]; 0.2 mg/kg/day
  reduction from Baseline in non-convulsive seizure frequency: 9.7%
  mean (SD) non-convulsive seizure frequency per 28 days: 93.7 (219.69) per 28 days
[1]; 0.8 mg/kg/day group
  mean (SD) number of non-convulsive seizures (all types) per 28 days: 335.2 (758.58) per 28 days
[1]; 0.8 mg/kg/day
  reduction from Baseline in non-convulsive seizure frequency: 59.1%
  mean (SD) non-convulsive seizure frequency per 28 days: 127.9 (297.39) per 28 days
[2]; fenfluramine and valproate, average 0.34 mg/kg/day for between 1 and 22 years
  Seizure-free Patients: 66.6%
[2]; [4]
  heart valve defects by echocardiography: No clinically relevant defects were identified
  reduction in seizures: 75%
[2]; not only photosensitive or self-induced seizures
  incidence of all types of seizures: effectively reduced the incidence of all types of seizures
[3]; Dravet patients 6 years of age or less
  reduction in MCSF: sustained, clinically meaningful reduction in MCSF
[3]; overall study population
  median decrease in MCSF over the entire observation period compared to baseline: −64%
[3]; patients <6 years old at entry
  median decrease in MCSF over the entire observation period compared to baseline: −76%
[3]; OLE, patients <6 years old
  most frequently reported AE's: pyrexia, nasopharyngitis, upper respiratory tract infections, and diarrhea
